Test results published in paper PMC12024193, “Engineered Lysin-Derived Peptide as a Potent Antimicrobial for Acne Vulgaris” (Antibiotics, 2025).

Tests used:
[1] = test system: C. acnes strain ATCC 6919; assay: Storage stability: bactericidal activity after thawing from -80 °C and four weeks at 4 °C; type: physicochemical, Cutibacterium acnes; settings: thawed from -80 °C, stored four weeks at 4 °C; read-out bactericidal activity at 25 μg/mL against C. acnes ATCC 6919
Description: (§1) Temperature-based killing assays were performed by initially thawing a frozen aliquot of P156, which was then stored at 4 °C for a month. This was the only experiment where an aliquot of a lysin-derived peptide was stored for an extended period of time at a temperature other than −80 °C. Next, C. acnes strain ATCC 6919 was treated with the above-mentioned P156 aliquot in buffer at 15 °C to 40 °C. For these experiments, separate aliquots of both the bacteria at 10^6 CFU/mL and peptide at 50 μg/mL were initially equilibrated to the temperature being assayed for 5 min in 1.7 mL microcentrifuge tubes using an EchoTherm chilling/heating plate (Torrey Pines Scientific, Carlsbad, CA, USA). The bacteria and peptide were then mixed together 1:1 in a microcentrifuge tube, yielding respective final concentrations of 5 × 10^5 CFU/mL and 25 μg/mL, and subsequently incubated in the chilling/heating plate for 1 h.

S. aureus strain USA300 = assay: One-hour killing assay with or without retinoic acid; type: cell-based, Staphylococcus aureus; settings: MRSA USA300, 1 h, Tris pH 7.2, 37 °C, triplicate
Description: (§2) Unless stated otherwise, the standard conditions for killing assays involved statically treating exponential phase bacteria at approximately 5 × 10^5 CFU/mL with a lysin-derived peptide at 25 μg/mL in a 96-well microtiter plate under aerobic (S. aureus) or anaerobic conditions (C. acnes and S. aureus) in 20 mM Tris (Fisher Scientific), pH 7.2, for 1 h at 37 °C. For dose–response killing assays, peptide concentrations ranging from 1 up to 125 μg/mL were tested.
For measuring the effect of retinoid on peptide bactericidal activity, S. aureus strain USA300 at 10^6 CFU/mL was treated with or without P156 at 25 μg/mL in buffer supplemented with all-trans-retinoic acid (Sigma-Aldrich) at 0.01–0.1% (w/v).
Each killing assay comprised an untreated control (bacteria absent peptide) for every condition tested. After 1 h, 100 μL directly from the sample, as well as 5 μL of each dilution from a 10-fold serial dilution, were plated on either TSB agar (for S. aureus killing assays using aerobic conditions), rTSB agar (for S. aureus killing assays using anaerobic conditions), or rTSB agar with 2% glycerol (for C. acnes killing assays) in order to quantitate bacterial viability. The LOD for each experiment was 10 CFU/mL, with one exception. […] For statistical analysis, p-values were calculated using an unpaired t-test due to each lysin or peptide dose being compared individually to the untreated group. […]

S. aureus = assay: One-hour killing assay against S. aureus (aerobic or anaerobic growth); type: cell-based, Staphylococcus aureus; settings: 20 mM Tris, pH 7.2, 1 h, 37 °C
Description: (§3) Bacterial strains used in this study are outlined in Table 2 and were stored at −80 °C. C. acnes strains were grown in a BACTRON900 anaerobic chamber (Sheldon Manufacturing Inc., Cornelius, OR, USA) at 37 °C to exponential phase in reduced Trypticase Soy Broth (rTSB, BD Biosciences, Franklin Lakes, NJ, USA) supplemented with 2% (v/v) glycerol. S. aureus strains were grown either aerobically or anaerobically at 37 °C to the exponential phase in TSB (aerobic growth) or rTSB (anaerobic growth).
as §2
(§4) Each killing assay comprised an untreated control (bacteria absent peptide) for every condition tested. After 1 h, 100 μL directly from the sample, as well as 5 μL of each dilution from a 10-fold serial dilution, were plated on either TSB agar (for S. aureus killing assays using aerobic conditions), rTSB agar (for S. aureus killing assays using anaerobic conditions), or rTSB agar with 2% glycerol (for C. acnes killing assays) in order to quantitate bacterial viability. The LOD for each experiment was 10 CFU/mL, with one exception. For the dose–response killing assay evaluating the collection of peptides against C. acnes, only the 10-fold serial dilutions from each sample were plated, resulting in an LOD of 200 CFU/mL. Experiments performed under anaerobic conditions used agar plates that were reduced overnight. Additionally, buffers for these particular assays were made fresh the day of the experiment and reduced for 2 h prior to use. Error bars correspond to the standard error of the mean (SEM) of two or three biological replicates. For statistical analysis, p-values were calculated using an unpaired t-test due to each lysin or peptide dose being compared individually to the untreated group. Additionally, to ensure clarity in presenting statistical significance, we used three types of statistical markers to highlight differences: ns, not significant, * p < 0.05 and a <3-log CFU reduction (with respect to the untreated group), ** p < 0.05 and a ≥3-log CFU reduction (with respect to the untreated group).

C. acnes = assay: One-hour killing assay against C. acnes (dose-response; temperature, pH and NaCl variations); type: cell-based, Cutibacterium acnes
Description: as §3, §2
To evaluate the effect salt has on the antibacterial activity of the peptide, C. acnes strain ATCC 6919 was treated with P156 in buffer supplemented with 0-500 mM NaCl. The bactericidal potency of P156 in a broad pH range was assayed by treating C. acnes strain ATCC 6919 with the peptide in either 20 mM 2-(N-morpholino) ethanesulfonic acid (MES, pH 5.5–6.5; Fisher Scientific), sodium phosphate buffer (NaPO4, pH 6.5–7.0), or Tris (pH 7.0–8.0).
as §1, §4

[2] = test system: C. acnes strain ATCC 6919; assay: Time-kill assay; type: cell-based, Cutibacterium acnes; settings: 25 μg/mL, 20 mM Tris, pH 7.2, 37 °C, three biological replicates
Description: Using an EchoTherm chilling/heating plate, separate aliquots of both C. acnes strain ATCC 6919 at 10^6 CFU/mL and P156 at 50 μg/mL in 20 mM Tris, pH 7.2, were equilibrated to 37 °C for 10 min in 1.7 mL microcentrifuge tubes. The bacteria and peptide were then combined 1:1 in a microcentrifuge tube to obtain final concentrations of 5 × 10^5 CFU/mL and 25 μg/mL, respectively. An untreated control (bacteria without peptide) was also included. The samples were incubated for a total of 30 min at 37 °C. At 1, 5, 10, 15, 20, 25 and 30 min, an aliquot was removed. Both 100 μL directly from the sample, as well as 5 μL of each dilution from a 10-fold serial dilution, were plated on rTSB agar supplemented with 2% (v/v) glycerol in order to assess bacterial viability. The LOD was 10 CFU/mL. Error bars correspond to ±SEM of three biological replicates. For statistical analysis, p-values were calculated using an unpaired t-test between the untreated group and the peptide-treated group at each time point. ** p < 0.05 and a ≥3-log CFU reduction (with respect to the untreated group).

[3] = 25 μg/mL, ATCC 6919, 1 h, 37 °C

Compound | stability after four weeks of storage at 4 °C [1] | log CFU reduction of S. aureus in the presence of 0.01-0.1% retinoic acid (S. aureus strain USA300; P156 at 25 μg/mL, LOD 10 CFU/mL) | lowest concentration reducing CFU counts of all S. aureus strains below the LOD (S. aureus; aerobic, strains 8325, USA300, USA400, LOD 10 CFU/mL) | log kill of all S. aureus strains tested (S. aureus; peptide at 5 μg/mL) | log CFU reduction of all S. aureus strains (below LOD) (S. aureus; peptide at 25 μg/mL) | log kill of MRSA strain USA300 grown under anaerobic conditions (S. aureus; peptide at 25 μg/mL, anaerobic, LOD 10 CFU/mL, triplicate) | log reduction of bacterial counts at each temperature assayed (C. acnes; 25 μg/mL, ATCC 6919, 15-40 °C, 1 h, peptide stored four weeks at 4 °C) | bactericidal effect at elevated pH levels (up to 7.6) (C. acnes; [3]) | bactericidal effect within pH 6-7 (C. acnes; [3]) | log reduction of C. acnes populations in 50 mM NaCl (C. acnes; [3]) | log CFU reduction (below LOD) at under 25 mM NaCl / lower salt concentrations (C. acnes; 25 μg/mL, ATCC 6919, 1 h, 37 °C, LOD 10 CFU/mL) | log reduction of C. acnes CFU counts (below LOD) at 20 °C to 40 °C (C. acnes; 25 μg/mL, ATCC 6919, 1 h, peptide stored four weeks at 4 °C, LOD 10 CFU/mL, triplicate) | antibacterial activity at high salt concentrations (C. acnes; 25 μg/mL, ATCC 6919, NaCl, 1 h, 37 °C) | log reduction of CFU counts at ≤50 mM NaCl (C. acnes; 25 μg/mL, ATCC 6919, buffer supplemented with NaCl, 1 h, 37 °C, triplicate) | log kill of all C. acnes strains tested (C. acnes; peptide at 5 μg/mL, seven strains, 20 mM Tris, pH 7.2, 1 h, 37 °C) | log CFU reduction of all C. acnes strains (below LOD) (C. acnes; peptide at 25 μg/mL, 20 mM Tris, pH 7.2, 1 h, 37 °C) | concentration lowering the viability of all C. acnes strains below the LOD (C. acnes; seven strains, 20 mM Tris, pH 7.2, 1 h, 37 °C, LOD 200 CFU/mL, duplicate) | log reduction in bacterial CFU in 10 min [2] | log reduction in bacterial CFU within 1 min [2] | antibacterial effect of retinoic acid alone on S. aureus (S. aureus strain USA300; 0.01-0.1% retinoic acid)
RRKAKAPRAEIYAQFNKWVYAGGKKLSGLVKRRRR [Peptide P156, variant peptide engineered by adding arginine residues at both the N- and C-terminal ends of the parental peptide PiP01] | remains stable and active | > 5 log CFU | 5 µg/mL | ≥ 3 log | > 4 log CFU | > 5 log | > 4 logs | able to eradicate C. acnes | complete bacterial eradication | 3 logs | > 4 log CFU | > 5 logs | lack of antibacterial activity | > 3 log CFU | ≥ 3 log | > 4 log CFU | ≥ 5 µg/mL | > 5 log | > 3 log | 
CC1=C(/C=C/C(C)=C/C=C/C(C)=C/C(=O)O)C(C)(C)CCC1 [retinoic acid, all-trans-retinoic acid, reference compound] |  |  |  |  |  |  |  |  |  |  |  |  |  |  |  |  |  |  |  | no antibacterial effect
